Measured values taken from patent US5187157A, “Peptide boronic acid inhibitors of trypsin-like proteases” (Du Pont Merck Pharmaceutical Company, priority 1988, dated 1993).

Columns and labels:
Human thrombin = biological target: T1, Human thrombin (Homo sapiens, UniProt P00734); assay: Inhibition of Thrombin (Esterase Activity); format: biochemical; settings: inhibitor 5 nM; activity remaining 10 to 20 min after initiation
T1 construct: purchased R.Q.P. Laboratories, South Bend, IN Lot HT102
Experimental: (§1) In the Examples which follow, the hydrolytic activity of each enzyme is measured in both the presence and absence of inhibitor and the percent enzyme activity determined. […] A steady state is reached fairly rapidly and nears completion within 5 min. Activity is evaluated between 10-20 min after the components are mixed to insure that reaction components are at equilibrium. The lowest concentration of inhibitor tested is determined by the estimated concentration of enzyme. […] The maintenance of pseudo-first-order reaction conditions and the sensitivity of the respective assays sets the lowest limit level of inhibitor tested at 10 nM for kallikrein inhibitors and 5 nM for thrombin inhibitors.
A stock solution of thrombin was prepared in 0.010M PIPES Buffer, pH 6.0, containing 0.75 M sodium chloride. […] The initial concentration of substrate was 0.10 mM and the concentration of thrombin was 1.0 nM (based on weight).

normal human plasma [1] = assay: Activated partial thromboplastin times (APTT), blood coagulation in vitro; format: biochemical; settings: for Calc. Concentration 2 × APTT: approximate concentration required to increase APTT two fold
Experimental: (§2) The effectiveness of inhibitors in reactions in which they compete with natural substrates for target enzymes is measured in vitro in blood coagulation assays. Two different assays are used, the APTT (activated partial thromboplastin times) and PT (prothrombin times) assays. These assays mimic the blood clotting process in vivo. Blood coagulation occurs through either of two pathways, each consisting of a cascades of zymogen activation steps. The pathways are termed the intrinsic and the extrinsic pathways (see L. Lorand, Methods in Enzymology 45: 31-37 (1976). The intrinsic pathway is initiated by negatively charged surfaces in which plasma kallikrein, factor XII and factor […] are activated and then factors IX and X and prothrombin are activated in calcium dependent steps. Thrombin, the last protease in the cascade, hydrolyses fibrinogen to fibrin which results in clot formation. In the APTT assay, plasma components are activated by exposure to negatively charged surfaces and then clotting times are measured after calcium is added to the system. In the extrinsic pathway, tissue thromboplastin activates factor VII which then activates factor X leading to the activation of thrombin. These events are measured in the prothrombin times assay.
The effect of protease inhibitors on blood coagulation in vitro was determined by measuring their effects on two different clinical parameters, the activated partial thromboplastin times (APTT) and prothrombin times (PT). Reagents for each of these assays were supplied by General Diagnostics, Jessup MD. Stock solutions of inhibitors were prepared in […] HEPES buffer, pH 7.5, containing 0.10 M sodium chloride. For the APTT assay, the inhibitor solution (0.100 mL) was incubated with normal human plasma (0.100 mL) and automated APTT reagent (0.100 mL). After incubation for 5.0 min at 37°, calcium chloride (0.100 mL) was added and the clotting times, measured in seconds, was determined on a fibrameter. The effects of the varying concentrations of inhibitor on blood clotting times compared with the clotting times of controls run in the absence of inhibitor, are shown in Table 3.

normal human plasma [2] = assay: Prothrombin times (PT), blood coagulation in vitro; format: biochemical; settings: for Calc. Concentration 2 × XPT: approximate concentration required to increase PT two fold
Experimental: as §2
For PT assays, inhibitor solutions (0.100 mL) were incubated with normal human plasma (0.100 mL) for 2 min at 37°.

[3] = Stability of Inhibitors in Human Plasma As Measured By APTT; format: in vitro ADME; settings: for Clotting Time: 250 nM in APTT assay
Experimental: The stability of inhibitors in plasma was determined by their ability to inhibit blood coagulation. First, a stock solutions (1.0 μM) of the inhibitors to be tested in 25 mM HEPES buffer, pH 7.5, containing 0.10 M sodium chloride were diluted 50% with normal human plasma. The mixtures were made at 0°, then aliquots (0.200 mL) were removed and incubated for 2 min at 37°. An equal volume of automated APTT reagent was added and clotting times were measured as described in Examples 111-117. The final concentration of inhibitor during the clotting assays was 250 nM. Values for compounds E and F were determined simultaneously with the Control. Values for compounds A, B and C were obtained on a different day.

Sprague Dawley CD Rats = assay: In Vivo Inhibition of Croton Oil Induced Inflammation (ear swelling); settings: Table 14; dose=100 μg, essentially the same conditions
Experimental: Two solutions were prepared, the first consisting of 5% croton oil, a known inflammatory agent, in an acetone carrier (Croton Solution) and the second consisting of 5% croton oil in an acetone carrier to which 10 mg/mL of a compound of the invention was added (Compound Solution). The Croton Solution (10 μL), or alternatively the Compound Solution (10 μL), was applied to the right ear of each animal (Sprague Dawley CD Rats, 130-140 g, supplied by Charles River Labs, Inc., Wilmington, MA). […] "SE" denotes standard error.

[4] = Stability of Inhibitors in Buffer (thrombin assay); settings: for stability in phosphate buffer at pH 7.5 (inhibitory activity): phosphate buffer pH 7.5; for Percent Thrombin activity: 1.0 μM
Experimental: Samples of the inhibitors are removed at increasing time intervals and their ability to delay clotting is measured at each interval.
Inhibitors, each at a concentration of 1.0 μM, were incubated at room temperature in 0.20 M sodium phosphate buffer, pH 7.5, containing 0.20 M sodium chloride and 0.10% PEG.

rabbit = rabbit model; Shaw et al.; cited from earlier work
rats = settings: Tremoli et al.; cited from earlier work
thrombin = settings: literature; cited from earlier work
Human plasma kallikrein = biological target: T2, Human plasma kallikrein (Homo sapiens, UniProt P03952); assay: Inhibition of Human Plasma Kallikrein; format: biochemical; settings: inhibitor 10 nM; activity remaining 10 to 20 min after initiation
T2 construct: purchased Protogen AG (Switzerland)
Experimental: as §1
Human plasma kallikrein was obtained from Protogen AG (Switzerland). The specific activity as described by the supplier is 15 units per mg. A unit is defined as the quantity of enzyme required to hydrolyze 1 μmole of substrate, H-(D)Pro-Phe-Arg-p-nitroanilide (Kabi S2302), per min at a substrate concentration of 0.50 mM at 25° in 50 mM potassium phosphate buffer, pH 8.0.

plasma [5] = assay: Heparin effect on plasma clotting times; format: biochemical; settings: assuming molecular weight 15,000 and 150 units/mg
plasma [6] = settings: 0.2-0.4 units of heparin per mL of plasma; cited from earlier work
plasma [7] = settings: at 1 μM; Green et al.; cited from earlier work
[8] = incubation in human plasma 0.5 h
[9] = incubation in human plasma 24 h
[10] = 0 hr in 0.20 M sodium phosphate buffer pH 7.5, room temperature

T2 sequence (P03952 391-638 limits assumed): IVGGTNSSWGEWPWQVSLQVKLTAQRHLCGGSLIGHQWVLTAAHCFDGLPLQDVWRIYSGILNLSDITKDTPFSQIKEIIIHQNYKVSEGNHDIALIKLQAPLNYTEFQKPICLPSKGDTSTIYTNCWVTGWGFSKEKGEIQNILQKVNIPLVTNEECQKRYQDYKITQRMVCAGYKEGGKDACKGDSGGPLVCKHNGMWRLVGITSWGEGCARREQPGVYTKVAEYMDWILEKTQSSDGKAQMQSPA
T2 sequence (P03952 20-390 partner limits assumed): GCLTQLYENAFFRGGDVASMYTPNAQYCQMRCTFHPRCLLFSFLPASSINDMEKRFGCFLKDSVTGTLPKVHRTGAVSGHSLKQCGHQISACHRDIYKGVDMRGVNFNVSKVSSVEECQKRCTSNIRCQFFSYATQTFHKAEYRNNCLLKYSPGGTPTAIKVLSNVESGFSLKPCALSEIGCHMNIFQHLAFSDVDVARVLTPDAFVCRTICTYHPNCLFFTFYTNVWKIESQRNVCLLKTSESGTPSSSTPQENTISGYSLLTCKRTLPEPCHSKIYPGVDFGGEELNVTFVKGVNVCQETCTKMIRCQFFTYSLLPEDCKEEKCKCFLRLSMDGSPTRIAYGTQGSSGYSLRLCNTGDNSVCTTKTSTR

Molecule | Percent Activity (Human thrombin) | Calc. Concentration 2 × APTT (normal human plasma [1]) | Activated Partial Thromboplastin Times (normal human plasma [1]; inhibitor 125 nM) | Activated Partial Thromboplastin Times (normal human plasma [1]; inhibitor 200 nM) | Activated Partial Thromboplastin Times (normal human plasma [1]; inhibitor 250 nM) | Activated Partial Thromboplastin Times (normal human plasma [1]; inhibitor 300 nM) | Activated Partial Thromboplastin Times (normal human plasma [1]; inhibitor 350 nM) | Calc. Concentration 2 × XPT (normal human plasma [2]) | Prothrombin Times (normal human plasma [2]; inhibitor 12.5 nM) | Prothrombin Times (normal human plasma [2]; inhibitor 250 nM) | Prothrombin Times (normal human plasma [2]; inhibitor 500 nM) | Prothrombin Times (normal human plasma [2]; inhibitor 750 nM) | Prothrombin Times (normal human plasma [2]; inhibitor 1000 nM) | Clotting Time ([3]; incubation in human plasma 0 h) | Clotting Time [3, 8] | Clotting Time ([3]; incubation in human plasma 1 h) | Clotting Time ([3]; incubation in human plasma 2 h) | Clotting Time ([3]; incubation in human plasma 4 h) | Clotting Time [3, 9] | stability in phosphate buffer at pH 7.5 (inhibitory activity) [4] | further results
Br.CC(C)(C)OC(=O)NC(Cc1ccccc1)C(=O)N1CCCC1C(=O)NC(CCCSC(=N)N)B1OC2CC3CC(C3(C)C)C2(C)O1 (stereo not drawn) [C, Boc-(D)Phe-Pro-boroIrg-C10 H16.HBr] | 3% | 200 nM | 46.9 s | 67 s | 160 s | 197.8 s | 301.8 s | 650 nM | 16.8 s | 20.8 s | 27.2 s | 44 s | 152.7 s | 203.2 s | 207.2 s | 214.2 s | 203.7 s | 209.7 s | 248.7 s | little loss of inhibitor activity | Activated Partial Thromboplastin Times (normal human plasma [1]; inhibitor 62.5 nM): 39.2 s; Percent Inhibition (Sprague Dawley CD Rats): 76%
N=C(N)NCCC[C@H](NC(=O)[C@@H]1CCCN1C(=O)[C@H](N)Cc1ccccc1)C(=O)CCl [H-(D)Phe-Pro-ArgCH2 Cl] | – | – | – | – | – | – | – | – | – | – | – | – | – | – | – | – | – | – | – | – | prevention of coronary thrombosis (rabbit): effective in the prevention of coronary thrombosis
CC(C)(C)OC(=O)N[C@H](Cc1ccccc1)C(=O)N1CCC[C@H]1C(=O)N[C@H](C=O)CCCNC(=N)N [Boc-(D)Phe-Pro-Arg-H] | – | – | – | – | – | – | – | – | – | – | – | – | – | – | – | – | – | – | – | – | size of venous thrombosis (rats): reduces the size of venous thrombosis
N=C(N)NCCC[C@@H](C=O)NC(=O)[C@@H]1CCCN1C(=O)[C@H](N)Cc1ccccc1 [H-(D)Phe-Pro-Arg-H] | – | – | – | – | – | – | – | – | – | – | – | – | – | – | – | – | – | – | – | – | Ki (thrombin): 0.075 µM
CC1(C)C2CC3OB(C(CCCN=C(N)N)NC(=O)C4CCCN4C(=O)C(N)Cc4ccccc4)OC3(C)C1C2.Cl.Cl (stereo not drawn) [B, H-(D)Phe-Pro-boroArg-C10 H16.2HCl] | 7% | 170 nM | 44.2 s | 71.5 s | 158.7 s | 169.7 s | 249.7 s | 460 nM | 20.1 s | 22.5 s | 33.8 s | 85.3 s | > 250 s | 152.2 s | 157.7 s | 163.7 s | 152.8 s | 157.7 s | 109.3 s | loses its biological activity over a period of an hour | Percent Activity (Human plasma kallikrein): 61%; Activated Partial Thromboplastin Times (normal human plasma [1]; inhibitor 62.5 nM): 36.5 s; Prothrombin Times (normal human plasma [2]; inhibitor 625 nM): 46.5 s; stability in human plasma (inhibitor activity by clotting time) ([3]; incubation with plasma): lost activity after 24 h; Percent Thrombin activity [4, 10]: 2.0%; Percent Thrombin activity ([4]; 0.5 hr in 0.20 M sodium phosphate buffer pH 7.5, room temperature): 15%; Percent Thrombin activity ([4]; 1 hr in 0.20 M sodium phosphate buffer pH 7.5, room temperature): 100%; stability in phosphate buffer at pH 7.5 (inhibitory activity) ([4]; listed as H-(D)Phe-Pro-boroArg-C10 H16): lost inhibitory activity within one hour
heparin | – | – | – | – | – | – | – | – | – | – | – | – | – | – | – | – | – | – | – | – | molar concentration increasing clotting times 2-2.5 fold (plasma [5]): 86 to 170 nM; increase of clotting times (plasma [6]): 2-2.5 fold
CC(C)(C)OC(=O)NC(Cc1ccccc1)C(=O)N1CCCC1C(=O)NC(CCCN=C(N)N)B1OC2CC3CC(C3(C)C)C2(C)O1.O=S(=O)(O)c1ccccc1 (stereo not drawn) [A, Boc-(D)Phe-Pro-boroArg-C10 H16.benzene sulfonic acid] | 3% | 230 nM | 36.6 s | 40.2 s | 81.2 s | 113.3 s | 128.7 s | 800 nM | 16.4 s | 17.1 s | 21.5 s | 26.7 s | > 200 s | 81.2 s | 84.7 s | 79.7 s | 86.7 s | 98.2 s | 92.2 s | little loss of inhibitor activity | Prothrombin Times (normal human plasma [2]; inhibitor 875 nM): 40.1 s; Percent Inhibition (Sprague Dawley CD Rats): 59%; Percent Thrombin activity [4, 10]: 3.3%; Percent Thrombin activity ([4]; 6.5 hr in 0.20 M sodium phosphate buffer pH 7.5, room temperature): 1.6%; Percent Thrombin activity ([4]; 24 hr in 0.20 M sodium phosphate buffer pH 7.5, room temperature): 0.8%
CC1CNc2c(cccc2S(=O)(=O)N[C@@H](CCCNC(=N)N)C(=O)N2CC[C@@H](C)C[C@@H]2C(=O)O)C1 (stereo partly drawn) [(2R,4R)-4-methyl-1[N^2 -{(3-methyl-1,2,3,4-tetrahydro-8-quinolinyl)sulfonyl}-L-arginyl]-2-piperid inecarboxylic acid] | – | – | – | – | – | – | – | – | – | – | – | – | – | – | – | – | – | – | – | – | increase of prothrombin times of plasma (plasma [7]): 2 fold
